We go through 64 molecules from a melting point compilation (Tetko et al.; mined from patent text by program, amines drawn as free bases though some values may be those of a salt).

Structures are written as SMILES.

The term melting point denotes the temperature, or range, at which the solid turns liquid. `COC(=O)c1cc(C)cc(OC)c1C1=C(OC)C(=O)c2c(O)cccc2C1=O` gave a melting point of 165 to 167 °C.

The molecule `c1ccc(NC2=NC3CCCc4cccc(c43)N2)cc1` (centres undefined) came in with a melting point of 233 to 235 °C.

Regarding `Cc1cc(NC(C)(C)C)nc(NC(C)(C)C)c1C#N`, the melting point was in the range of 134 to 138 °C.

The molecule `CC1COC2(c3ccccc3)c3cc(Cl)ccc3NC(=O)CN12` (centres undefined) showed a melting point of 84 to 98 °C.

For `Cc1nc(Nc2ccc(F)cc2)nc(N2CCc3ccccc3C2CO)c1C` (centres undefined), the melting point was 198 to 200 °C.

Turning to `O=S(=O)(On1nnc2ccccc21)c1cccnc1`, the melting point worked out at 98 °C.

On to `CC(C)C1Cc2cnc3c(c2C1(O)CC#N)CCO3` (centres undefined), for which the melting point lay in the range of 169 to 170 °C.

`COC(=O)C(c1ccccc1)c1ccccn1` (racemic): the melting point worked out at 74 °C.

`COC(=O)C1=C(CBr)Nc2ncnn2C1c1cccs1` (centres undefined): the melting point is 155 °C.

The molecule `CN1CCC(OC2c3ccccc3CCn3c2nc(-c2ccccc2)c3C=O)CC1` (centres undefined) came in with a melting point of 70 °C.

Turning to `CN(C)C=Nc1cc(Cc2c(Cl)cccc2Cl)nc(Nc2ccc(C#N)cc2)n1`, the melting point is 175 to 180 °C.

As for `COC(=O)c1ncsc1S`, the melting point was 100 °C.

Turning to `CC1=Nc2c(Br)cc(Br)cc2S(=O)(=O)N1`, the melting point fell in the range of 287 to 289 °C.

Regarding `Nc1nc2ccccc2c2c1ncn2CCCCNC(=O)[C@@H]1C[C@H]1c1ccccc1` (relative stereo), the melting point worked out at 77 °C.

In turn, `COC(=O)c1sc2c(c1O)CN(C(=O)OC(C)(C)C)CC2` displayed a melting point of 84.5 to 86 °C.

As to `CS(=O)(=O)NC(=O)c1cccc([N+](=O)[O-])c1`, the melting point lay within 175 to 178 °C.

With `CCc1nccc(NC(=O)Cc2ccc(O)cc2)c1Cl`, the melting point was 158 to 161 °C.

In turn, `C#Cc1ccc2c(c1)C1(c3ccccc3-c3ccccc31)c1ccccc1-2` had a melting point of 169 to 170 °C.

As for `O=C(O)C1C2C=CC(C2)C1NS(=O)(=O)c1ccc(OCc2ccccc2)cc1` (centres undefined), the melting point lay within 201 to 203 °C.

Molecule `NS(=O)(=O)c1ccccc1-c1cnco1` yielded a melting point of 157 to 163 °C.

`CNc1ncc2c(n1)N(C1CCC(C(=O)O)CC1)C(=O)N(c1c(F)c(OC)cc(OC)c1F)C2` (centres undefined): the melting point was found to be 148 °C.

`COc1ccc(S(=O)(=O)n2c(CCCC(=O)O)cc3cc(Cl)ccc32)cc1` showed a melting point of 138 to 142 °C.

`Cn1nc(-c2ccc(S(C)(=O)=O)cc2)c(-c2ccc(F)cc2)c1C(F)(F)F` registered a melting point of 166 to 169 °C.

Molecule `O=c1cc(-c2ccoc2)c2ccc(COc3cc(F)cc(-c4ccccc4)c3)cc2o1` gave a melting point of 105 to 107 °C.

Molecule `CNC(=C[N+](=O)[O-])NCCSCc1cc(OC)ccn1` displayed a melting point of 107 to 108 °C.

As to `NNc1ccc(C(F)(F)F)c(Cl)c1Cl`, the melting point fell in the range of 79 to 80 °C.

As to `CCCCCCCCCCCCCCCCCCc1ccc(S(=O)(=O)Cl)cc1`, the melting point lay in the range of 43 to 44 °C.

`CCCCOc1c(OC)cc(C(=O)O)cc1[N+](=O)[O-]` showed a melting point of 114 to 115 °C.

With `Cn1c2c(c3ccccc31)C(=O)C(CNC1=NCCN1)CS2` (centres undefined), the melting point lay within 245 to 247 °C.

With `COc1cc(OCC2CCCCC2)ccc1/C=C/c1cc(/C=C/c2ccc3cc[nH]c3c2)[nH]n1`, the melting point fell in the range of 104 to 108 °C.

Consider `CC(C)(C)c1ccc(Nc2nnc(Cc3cnc(O)c(-c4ccco4)c3)c3ccccc23)cc1`, for which the melting point lay in the range of 180 to 182 °C.

The molecule `CC(=O)Nc1ccccc1-c1ccc2c(c1)S(=O)(=O)NC(C1CCCCC1)N2` (centres undefined) returned a melting point of 245 to 249 °C.

The molecule `COc1ccc(N2CCN(c3ccc(Nc4nnc(C)s4)cc3)CC2)cc1` displayed a melting point of 277 °C.

Turning to `O=C(O)CCn1c(=O)n2n(c1=O)C(C(=O)O)C=CC2` (centres undefined), the melting point lay within 172 to 175 °C.

For `c1ccc2cc3[nH]c(SCc4nccs4)nc3cc2c1`, the melting point is 153 to 157 °C.

As for `CCN(CC)CCN1CCN(Cc2ccc(O)cc2)C(c2ccccc2)C1` (centres undefined), the melting point is 108 to 112 °C.

`COc1cccc(C(C)N(C)CCCOc2ccc(S(=O)(=O)c3c(C(C)C)cn4ccccc34)cc2)c1` (centres undefined) had a melting point of 111 to 113 °C.

The molecule `CCC(=O)NCCc1c(-c2ccccc2)nn2ccc3c(c12)CCO3` displayed a melting point of 169 to 170 °C.

The molecule `CC(C(=O)O)c1ccc2nc(-c3ccccc3)ccc2c1` (centres undefined) gave a melting point of 161 to 162 °C.

For `COc1cc(C(O)c2ccnc3ccccc23)ccc1OCc1ccccc1` (centres undefined), the melting point was 117 to 118 °C.

`Cc1nn(-c2ccccn2)c(-c2ccccc2)c1CC(=O)O`: the melting point was 182 to 183 °C.

In turn, `COc1ccc(-c2nc(S(=O)(=O)c3nccs3)[nH]c2-c2ccc(OC)cc2)cc1` yielded a melting point of 219 °C.

For the molecule `N=c1sc2ccccc2n1C(C=O)c1ccc(Cl)cc1` (centres undefined), the melting point is 114 °C.

Turning to `CC(=O)SCCC(=O)CCC(=O)O`, the melting point lay within 72 to 74 °C.

The molecule `O=C(NCc1ccccc1)C1Cc2cc(Br)cc3[nH]c(=O)c(=O)n1c23` (centres undefined) returned a melting point of 152 to 153 °C.

Molecule `CC(C)(C)c1ccc2c(c1)C(CO)c1cc(C(C)(C)C)ccc1-2` gave a melting point of 102 to 103 °C.

`Nc1ncc(C#Cc2ccc(Cl)cc2)c(N2CCOCC2)n1` displayed a melting point of 193 to 194 °C.

The molecule `O=c1[nH]c(-c2ccccc2Br)nc2c1CCCC2` came in with a melting point of 193 °C.

As to `Cc1ccc(C)c(-c2cn(C)cc(-c3cccc(C(F)(F)F)c3)c2=O)c1`, the melting point was in the range of 165 to 167 °C.

The molecule `CC(C)(C)c1ccc(S(=O)(=O)Nc2cc(OCCO)ncn2)cc1` returned a melting point of 169 to 170 °C.

In turn, `COC(=O)[C@@]1(c2ccc(Br)cc2)CC1(c1ccccc1)c1ccccc1` yielded a melting point of 82 to 85 °C.

On to `O=C(O)CC1(c2ccccc2)Oc2ccccc2O1`, for which the melting point is 152 to 153 °C.

`NCC1(c2onc(-c3ccc(O)cc3)c2-c2ccccc2)CC1` registered a melting point of 220 to 225 °C.

`COc1cc(C(=O)O)ccc1Cc1c(Cl)n(C)c2cc(Cl)c(CC(C)NC(=O)N(C)C)cc12` (centres undefined) registered a melting point of 125 to 135 °C.

On to `Nc1ccc(OC2=C(Oc3ccc(N)cc3C(F)(F)F)C(F)(F)C(F)(F)C2(F)F)c(C(F)(F)F)c1`, for which the melting point was 88 to 93 °C.

`CCOC(=O)c1ccc(CNc2ccncc2[N+](=O)[O-])cc1` came in with a melting point of 166 to 168 °C.

The molecule `COCOc1c(C)cc(-c2ccc(C(=O)NCCOc3ccc(CC(Oc4ccccc4)C(=O)O)cc3)cc2)cc1C` (centres undefined) returned a melting point of 142 to 143 °C.

In the case of `Cc1cc(C(N)=O)cc(C)c1C(=O)O`, the melting point was in the range of 238 to 240 °C.

Molecule `CC(C)Oc1nccc(-c2c(-c3ccc(F)cc3)ncn2C2CCC(=O)CC2)n1` displayed a melting point of 161 to 163 °C.

`O=S(=O)(c1ccccc1)c1ccc2c(c1)OCCN2CCN1C=CNC1`: the melting point fell in the range of 61.5 to 64.4 °C.

`NC(=O)c1ccccc1N1CCC1COc1cncc(F)c1` (centres undefined) displayed a melting point of 71 to 72 °C.

In turn, `CCn1nc(C(C)C)c2c1C(=O)NCC(c1ccccc1)=N2` gave a melting point of 160 °C.

With `CCc1nc2c(o1)C(=O)C(Cl)=C(Nc1ccccc1)C2=O`, the melting point was 159 °C.

`CC(C)C1CC(=O)Nc2nc(C#N)c3ncccc3c21` (centres undefined) had a melting point of 220 °C.
